A value given as a limit tells only on which side of the number the result lay.

Series [1] concerns Tau protein. Description: Tau-phosphorylation: inhibition of phosphorylation of the Tau protein in adult rat cortex sections. Format: cell-based. The conditions noted are these: inhibition of Tau phosphorylation (Ser396/404, antibody AD2), 2 h incubation at 37° C. Here is the method: The compounds' activities were determined by measuring the inhibition of phosphorylation of the Tau protein in adult rat cortex sections. The cortex sections having a thickness of 300 μm were prepared from 8-10-week old male OFA rats (Iffa-Credo), sacrificed by decapitation. They were incubated in 5 ml of DMEM medium containing pyruvate and glucose 4.5 g/l at 37° C. for 40 min. The sections were then washed twice with the medium, distributed into microtubes (50 μl in 500 μl of medium with or without test compounds), and incubated at 37° C., with stirring. Two hours later, the experiment was stopped by centrifugation. The sections were washed, sonicated and centrifuged at 18300 g, for 15 min at 4° C. The concentration of proteins in supernatant was determined by a commercial assay (BCA Protein Assay, Pierce) based on the Lowry method. The samples, denatured beforehand for 10 min at 70° C., were separated on a 4-12% Bis-Tris vertical gel in the presence of MOPS-SDS buffer and electrotransferred onto nitrocellulose membrane. Immunolabeling was performed with their monoclonal antibody AD2 which specifically recognizes the phosphorylated epitopes Ser396/404 of the Tau protein. The immunoactive proteins were visualized by adding a second antibody directed against the mouse IgG's and coupled to peroxidase and a chemiluminescent substrate. The autoradiograms obtained were finally quantified using the ‘GeneTools’ software from Syngene (GeneGnome, Ozyme) in order to determine an IC50.

For series [2], the target named is human recombinant GSK-3β (Homo sapiens, UniProt P49841). Description: GSK-3β activity, AlphaScreen with primed glycogen synthase substrate peptide. The conditions noted are these: human recombinant GSK-3β, 10 μM ATP, 60 min at room temperature, AlphaScreen; read-out: IC50. Format: biochemical. As to the method: GSK-β activity was measured using human recombinant GSK-3β and a primed (pre-phosphorylated) substrate peptide (derived from glycogen synthase and containing the phosphorylation sites 3a, b, and c) on basis of the AlphaScreen technology in 384-well plate format (small volume plate, white, GREINER).
Sequence of human recombinant GSK-3β (P49841 whole entry): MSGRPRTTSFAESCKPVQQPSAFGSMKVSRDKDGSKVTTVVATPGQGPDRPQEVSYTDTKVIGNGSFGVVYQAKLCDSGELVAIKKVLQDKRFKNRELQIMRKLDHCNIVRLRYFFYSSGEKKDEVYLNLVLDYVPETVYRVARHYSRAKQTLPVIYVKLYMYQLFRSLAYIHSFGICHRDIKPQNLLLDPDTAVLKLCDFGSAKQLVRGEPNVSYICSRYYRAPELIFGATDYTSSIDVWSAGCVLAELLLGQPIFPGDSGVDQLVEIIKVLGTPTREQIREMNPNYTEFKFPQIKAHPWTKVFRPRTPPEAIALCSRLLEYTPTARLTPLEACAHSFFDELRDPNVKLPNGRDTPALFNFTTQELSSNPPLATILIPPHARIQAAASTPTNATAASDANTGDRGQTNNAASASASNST

`O=C(NCc1ccccc1)c1cc(-c2ccc(O)cc2)n[nH]c1=O` [Example 19, N-benzyl-3-oxo-6-[4-(hydroxy)phenyl]-2,3-dihydropyridazine-4-carboxamide]: the concentration for half-maximal inhibition (IC50) (commonly the concentration needed to halve the response being measured) in series [1] was determined as 4.1 µM.

Turning to `O=C(NCc1ccc(Cl)cc1Cl)c1cc(-c2ccncc2)n[nH]c1=O` [Example 2, N-(2,4-dichlorobenzyl)-3-oxo-6-pyridin-4-yl-2,3-dihydropyridazine-4-carboxamide], the melting point (usually the temperature, or range, at which the solid turns liquid) stood at 233 °C. Besides, in series [1], the IC50 stood at 22 µM. Moreover, in series [2], the half-inhibitory concentration (IC50) came out at 0.72 µM.

Turning to `O=C(NCCCc1ccccc1)c1cc(-c2ccncc2)n[nH]c1=O` [Example 66, 3-Oxo-6-pyridin-4-yl-2,3-dihydro-pyridazine-4-carboxylic acid (3-phenyl-propyl)-amide; compoundwith trifluoro-aceticacid], the IC50 was determined as 1.1 µM in series [1] and 0.095 µM in series [2].

With `O=C(NCc1ccc(Cl)cc1)c1cc(Cl)n[nH]c1=O` [Example 43, 6-Chloro-3-oxo-2,3-dihydro-pyridazine-4-carboxylic acid 4-chloro-benzylamide], in series [1], half-maximal inhibition (IC50) was put at 2.2 µM.

On to `O=C(NCc1ccc(Cl)cc1Cl)c1cc(-c2ccc(O)cc2)n[nH]c1=O` [Example 22, N-(2,4-Dichlorbenzyl)-3-oxo-6-[4-(hydroxy)phenyl]-2,3-dihydropyridazine-4-carboxylic acid], for which, in series [1], the midpoint of inhibition, the IC50, lay at 22 µM.

`O=C(NCc1ccc(Cl)cc1)c1cc(-c2ccncc2)n[nH]c1=O` [Example 4, N-(4-chlorobenzyl)-3-oxo-6-pyridin-4-yl-2,3-dihydropyridazine-4-carboxamide]: the melting point was 250 °C. The same compound showed an IC50 in series [1] of 13 µM. The IC50 in series [2] is 0.18 µM.

In the case of `Cc1cc(-c2cc(C(=O)NCc3ccc(Cl)cc3)c(=O)[nH]n2)cc(C)c1O` [Example 52, 6-(4-Hydroxy-3,5-dimethyl-phenyl)-3-oxo-2,3-dihydro-pyridazine-4-carboxylic acid 4-chloro-benzylamide], the IC50 was 19 µM in series [1] and more than 10 µM in series [2].

`O=C(NCc1ccc(C(F)(F)F)cc1)c1cc(-c2ccncc2)n[nH]c1=O` [Example 10, 3-oxo-6-pyridin-4-yl-N-[4-(trifluoromethyl)benzyl]-2,3-dihydropyridazine-4-carboxamide] gave a melting point of 227 °C. This compound also came in with an IC50 in series [1] of 9.5 µM.

On to `O=C(NCc1ccc(Cl)cc1)c1cc(-c2cccc(O)c2)n[nH]c1=O` [Example 53], for which the IC50 in series [1] was 19 µM; in series [2], 4.4 µM.

The compound `O=C(NCc1ccncc1)c1cc(-c2ccncc2)n[nH]c1=O` [Example 8, 3-oxo-6-pyridin-4-yl-N-(pyridin-4-ylmethyl)-2,3-dihydropyridazine-4-carboxamide] had a melting point of 254 °C. Also, in series [1], 9 µM corresponded to half-maximal inhibition (IC50).

`CNc1nccc(-c2cc(C(=O)NCc3ccc(Cl)cc3)c(=O)[nH]n2)n1` [Example 34, 6-(2-Methylamino-pyrimidin-4-yl)-3-oxo-2,3-dihydro-pyridazine-4-carboxylic acid 4-chloro-benzylamide]: in series [1], the IC50 came to 0.24 µM.

Regarding `O=C(NCc1ccc(Cl)cc1)c1cc(-c2ccc(O)cc2)n[nH]c1=O` [Example 40, 6-(4-Hydroxy-phenyl)-3-oxo-2,3-dihydro-pyridazine-4-carboxylic acid 4-chloro-benzylamide], the 50% inhibitory concentration (IC50) was 0.3 µM in series [1] and 2.8 µM in series [2].

With `O=C(NCc1ccc(Cl)c(Cl)c1)c1cc(-c2ccncc2)n[nH]c1=O` [Example 16, N-(3,4-dichlorobenzyl)-3-oxo-6-pyridin-4-yl-2,3-dihydropyridazine-4-carboxamide], the melting point came out at 265 °C. In series [1], the IC50 is 3.5 µM.

The values above are taken from patent publication US7309701B2, “Pyridazinone derivatives as pharmaceuticals and pharmaceutical compositions containing them” (Sanofi-Aventis Deutschland GmbH, priority 2002, dated 2007).
